Laboratory results: patent publication US11841360B1, “Systems, devices, and methods for ex vivo assessment of responses to multiple therapeutic agents” (Oregon Health & Science University, priority 2018, dated 2023)

Experiments:
BT474 tumors = conditions: HER2+ luminal-like BT474 tumors, with NRG1b; cited from earlier work
JIMT1 = conditions: HER2+ basal-like JIMT1, with HGF; cited from earlier work
MMTV-PyMT tumors = assay: Multiplex nanodose assay (MNA): implantable microdevice in tumor, CC3/MHC-I IHC and multiplex IHC adjacent to the drug-releasing well; type: in vivo, mouse; conditions: mIHC, 3 days
From the text: Multiplex nanodose assay (MNA) system and translation to breast cancer patients: The illustrated microdevice (FIG. 6A) is a non-toxic 4×0.8 mm resin cylinder with eighteen 200 μm deep reservoirs, that are packed with active compounds (drugs or drug combinations) in solid form. The device is implanted and stays in the tumor tissue for up to 8 days; after which the tumor/tissue surrounding the device is harvested with the device in place and formalin fixed and paraffin embedded (FFPE). The tumor tissue is analyzed adjacent to each drug well using multiplex IHC (mIHC) with antibodies that interrogate one or more of cleaved caspase activity, epithelial, mesenchymal, endothelial status, as well as immune composition and activity. […] Signal of individual markers are merged and the overlap is quantified.
(FIG. 8A). […] Mean intensity value of the CC3 signal was measured adjacent to the drug releasing reservoir and was normalized to control PEG only loaded reservoir. […] (n=3 regions of interest in one sample for (FIG. 8F) and n=3 drug loaded wells for (FIG. 8D); significance was calculated by a two-tailed t-test with equal variance. Of note, early microdevice studies validated each well to be a biological replicate due to heterogeneous nature of tumors in general (Jonas et al., Sci Transl. Med. 7, 284ra59, 2015). Microfluidic ex vivo platform maintains the viability of the primary mouse tumor tissue. […]

[1] = tested on: immunocompetent mouse models of triple negative and HER2+ breast cancer with late stage spontaneously developing tumors; assay: MNA small scale screening using 5 FDA approved drugs, CC3 and multiplex IHC; type: in vivo; conditions: for infiltration of cytotoxic neutrophils: mIHC close to the drug releasing well
From the text: Panobinostat induces immunogenic cell death associated with Neuropilin-1 neutrophil infiltration: We have developed a novel pre-clinical model system—the Multiplex Nanodose Assay (MNA)—that enables a comprehensive single cell analysis of drug-mediated effects in complex tumor microenvironment (TME). The MNA is based on a recently developed implantable microdevice that performs drug sensitivity testing of multiple drugs at once inside a living tissue (FIGS. 18A and 18B) (Jonas et al., Sci Transl Med 7:284ra57, 2015; Watson et al., Cell Syst 1-14, 2018, doi.org/10.1016/j.cels.2018.02.001). The drugs are passively released into distinct tumor regions and we analyze the drug mediated effects in close proximity to the drug releasing well by multiplex immunohistochemistry (mIHC) (FIG. 18C). This is a sequential IHC staining on a single formalin fixed paraffin embedded (FFPE) tissue for multiparametric characterization of single cells similar to flow cytometry, except that the cells are studies in their natural intact environment (Tsujikawa et al., Cell Rep 19:203-17, 2017; Chang et al., Proc Annu Int Conf IEEE Eng Med Biol Soc EMBS. 4046-9, 2017). The spatial relation of the functionally different populations facilitates identification of the drug-mediated cellular mechanisms. This knowledge can be then translated to rapidly identify rational combination treatment strategies.
With the MNA, we have performed a small scale screening using 5 FDA approved drugs in immunocompetent mouse models of triple negative and HER2+ breast cancer with late stage spontaneously developing tumors. […]
Since panobinostat-mediated effects in vivo are likely linked to effective anti-tumor immunity and increased response to PD-1 blockade therapy, we took a closer look at the immediate interaction between dying tumor cells and tumor microenvironment. […] In the multiplex readout panel, we incorporated stains that interrogate basic drug-sensitivity testing, epithelial, mesenchymal, endothelial compartment, but mainly multiple markers of immune composition and activity. […]

For `CS(=O)(=O)CCNCc1ccc(-c2ccc3ncnc(Nc4ccc(OCc5cccc(F)c5)c(Cl)c4)c3c2)o1` [Lapatinib], the “proliferation under TKI in presence of neuregulin-1b (NRG1b)” value (BT474 tumors) is given as “restores the proliferation” and the “apoptosis under TKI in presence of hepatocyte growth factor (HGF)” value (JIMT1) is given as “decreasing apoptosis to normal levels”.

In the case of `CCOc1cc2ncc(C#N)c(Nc3ccc(OCc4ccccn4)c(Cl)c3)c2cc1NC(=O)/C=C/CN(C)C` [Neratinib], the “proliferation under TKI in presence of neuregulin-1b (NRG1b)” value (BT474 tumors) is given as “restores the proliferation” and the “apoptosis under TKI in presence of hepatocyte growth factor (HGF)” value (JIMT1) is given as “decreasing apoptosis to normal levels”.

In the case of `Cc1[nH]c2ccccc2c1CCNCc1ccc(/C=C/C(=O)NO)cc1` [panobinostat], the “infiltrate of cytotoxic neutrophils at the reservoir” value (MMTV-PyMT tumors) is reported as “heavy infiltrate of cytotoxic neutrophils”, the “share of Neuropilin-1 positive cells that are cytotoxic neutrophils (Myeloperoxidase staining)” value ([1]; at the panobinostat well) is reported as ~85% and the “infiltration of cytotoxic neutrophils” value [1] is reported as “increased infiltration of cytotoxic neutrophils”. For the same compound, the “infiltration of cytotoxic neutrophils” value ([1]; listed as Panobinostat) was “robust increase of neutrophils”.
